One may read the Ki as the dissociation constant of the complex between target and ligand, obtained from inhibition or displacement. The term IC50 denotes the concentration that inhibits the measured activity by half.

The values that follow come from US20190185479A1, “BICYCLIC NITROGENATED HETEROCYCLIC COMPOUND” (MITSUBISHI TANABE PHARMA CORPORATION, priority 2016, published 2019).

What all share (assay type): biochemical
One assay addresses T1, hPDE1A (Homo sapiens, UniProt P54750).
T1 construct: purchased SB Drug Discovery
Briefly: PDE7 selectivity test (Ki value), Experimental Example 2: hPDE1A. As to conditions: Ki from IC50 by Cheng-Prusoff, read-out: PDE inhibition constant Ki, PDE1. The procedure: (§1) hPDE1A, hPDE2A, hPDE3A, hPDE4D, hPDE5A, and hPDE8B were purchased from SB Drug Discovery. hPDE7B was isolated by the same method as [Method for preparing samples 1], and hPDE9A, hPDE10A, and hPDE11A were isolated by the same method as hPDE7B, i.e., isolated from COS-7 cells transfected with plasmids encoding each PDE. PDE6 was purified and isolated from bovine retina (bovine PDE6).
(§2) Prior to the calculation of Ki value, Km value of each PDE against cAMP or cGMP was calculated. Each PDE diluted with an assay buffer so that it would have an appropriate enzyme activity, and six or more concentrations of cAMP or cGMP were reacted at room temperature for 60 minutes. Regarding PDE using cAMP as a substrate, PDELight (trademark) HTS cAMP phosphodiesterase Kit (Lonza) was used to measure a degradation product, 5′-AMP. Also, regarding PDE using cGMP as a substrate, […] of perchloric acid was added to the mixture to stop the reaction, and the resulting mixture was subjected to LC-MS/MS to measure the residual cGMP concentration. The amount of degraded substrate in each substrate concentration was calculated, the concentration of the added substrate was plotted on the horizontal axis, the amount of degraded substrate was plotted on the vertical axis, and Km value was calculated by non-linear regression on the basis of Michaelis-Menten equation. Km value (substrate) of each PDE was hPDE1A: 4.3 (cGMP), hPDE2A: 36 (cAMP), hPDE3A: 0.11 (cAMP), hPDE4D: 0.90 (cAMP), hPDE5A: 3.9 (cGMP), bovine PDE6:9.8 (cGMP), hPDE7B: 0.015 (cAMP), hPDE8B: 0.63 (cAMP), hPDE9A: 0.0037 (cGMP), hPDE10A: 0.051 (cAMP), and hPDE11A: 1.4 (cAMP) μmol/L, respectively.
(§3) Next, PDE inhibition assay of a compound was carried out using each PDE. The PDE inhibition assay was basically carried out by the same enzyme reaction method as [Assay procedure 1], and the degraded amount of cAMP or cGMP was measured by the same method as [Assay procedure 2]. In the assay, a concentration approximated to Km value of each PDE against cAMP or cGMP was used as a substrate concentration. Meanwhile, regarding hPDE5A, hPDE8B, and hPDE9A, IMAP (trademark) FP Phosphodiesterase Evaluation Assay Kit (Molecular Devices) was used to measure the degradation of FAM-cAMP or FAM-cGMP by fluorescence depolarization technique.
(§4) Each compound was evaluated at six or more concentrations with common ratio 10. Each inhibition rate was calculated according to <Method for data calculation 1>, and then each IC50 value was calculated by sigmoid regression. The resulting IC50 value was used in the following Cheng-Prusoff equation to calculate each Ki value. Ki=IC50/(1+[S]/Km), wherein [S] represents a substrate concentration used

The target of assay [1] is T2, hPDE10A (Homo sapiens, UniProt Q9Y233). Kind of assay: PDE7 selectivity test (Ki value), Experimental Example 2: hPDE10A. As to conditions: Ki from IC50 by Cheng-Prusoff, read-out: PDE inhibition constant Ki, PDE10. Here is the method:
as §1, §2, §3, §4

Assay [2] deals with T2, hPDE10A. Briefly: PDE10 inhibition assay (IC50), Experimental Example 3. To be noted: for IC50: hPDE10A, read-out: PDE inhibition assay IC50, PDE10; for inhibition at 10 µM: at 10 μmol/L, read-out: inhibition rate (%) at prescribed concentration, PDE10. The gist of the method: (§5)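 Recombinant human enzymes incubated with compound and 3 nmol/L cAMP (final) in Tris-HCl pH 7.5 buffer with MgCl2, BSA, DTT, 2% DMSO final, 60 min at room temperature. Residual cAMP measured by TR-FRET (LANCE Ultra), reaction stopped with 0.5 mmol/L IBMX. IC50 from inhibition relative to no-compound (0%) and no-enzyme (100%) controls.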

Another assay concerns the target T3, hPDE4D (Homo sapiens, UniProt Q08499).
T3 construct: purchased SB Drug Discovery
Kind of assay: PDE4 inhibition assay (IC50), Experimental Example 3. To be noted: hPDE4D; read-out: PDE inhibition assay IC50, PDE4. The gist of the method:
as §5

Another assay concerns the target T4, hPDE3A (Homo sapiens, UniProt Q14432).
T4 construct: purchased SB Drug Discovery
Kind of assay: PDE7 selectivity test (Ki value), Experimental Example 2: hPDE3A. To be noted: Ki from IC50 by Cheng-Prusoff, read-out: PDE inhibition constant Ki, PDE3. Here is the method: as §1, §2, §3, §4

T1 sequence (P54750 whole entry): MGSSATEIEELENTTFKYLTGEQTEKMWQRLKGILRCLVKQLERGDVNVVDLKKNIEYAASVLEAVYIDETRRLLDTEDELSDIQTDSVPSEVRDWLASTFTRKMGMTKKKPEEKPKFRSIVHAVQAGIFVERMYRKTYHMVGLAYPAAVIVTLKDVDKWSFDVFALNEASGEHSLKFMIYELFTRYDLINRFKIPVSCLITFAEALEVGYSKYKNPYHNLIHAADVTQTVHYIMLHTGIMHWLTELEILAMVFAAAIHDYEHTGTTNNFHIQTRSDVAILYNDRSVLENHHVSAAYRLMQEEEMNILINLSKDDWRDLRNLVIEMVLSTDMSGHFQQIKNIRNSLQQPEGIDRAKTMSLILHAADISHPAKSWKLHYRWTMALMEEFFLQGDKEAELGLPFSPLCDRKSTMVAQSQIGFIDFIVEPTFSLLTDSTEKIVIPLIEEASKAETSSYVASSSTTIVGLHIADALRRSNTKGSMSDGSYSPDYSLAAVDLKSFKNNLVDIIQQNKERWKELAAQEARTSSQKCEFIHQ
T2 sequence (Q9Y233 290-1055 limits assumed): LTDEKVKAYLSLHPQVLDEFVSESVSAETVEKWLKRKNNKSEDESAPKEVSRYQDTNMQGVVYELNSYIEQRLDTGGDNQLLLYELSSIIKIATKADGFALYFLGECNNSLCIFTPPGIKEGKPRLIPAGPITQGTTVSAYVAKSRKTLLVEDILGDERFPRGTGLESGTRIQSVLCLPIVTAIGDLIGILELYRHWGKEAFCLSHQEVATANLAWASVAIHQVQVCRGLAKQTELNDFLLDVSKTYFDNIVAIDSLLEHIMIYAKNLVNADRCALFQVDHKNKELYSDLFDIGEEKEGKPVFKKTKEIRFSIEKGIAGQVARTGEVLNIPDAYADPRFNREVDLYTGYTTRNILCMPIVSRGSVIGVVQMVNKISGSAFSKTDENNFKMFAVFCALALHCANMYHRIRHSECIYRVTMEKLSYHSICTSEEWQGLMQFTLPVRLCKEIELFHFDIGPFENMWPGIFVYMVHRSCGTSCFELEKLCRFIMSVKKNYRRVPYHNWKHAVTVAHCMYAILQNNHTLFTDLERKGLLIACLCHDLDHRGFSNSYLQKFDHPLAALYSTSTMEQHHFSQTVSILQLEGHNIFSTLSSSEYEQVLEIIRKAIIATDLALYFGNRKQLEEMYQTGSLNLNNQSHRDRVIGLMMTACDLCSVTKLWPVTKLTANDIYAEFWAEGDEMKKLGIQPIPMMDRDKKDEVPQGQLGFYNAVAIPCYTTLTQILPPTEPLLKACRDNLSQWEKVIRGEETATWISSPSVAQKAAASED
T3 sequence (Q08499 whole entry): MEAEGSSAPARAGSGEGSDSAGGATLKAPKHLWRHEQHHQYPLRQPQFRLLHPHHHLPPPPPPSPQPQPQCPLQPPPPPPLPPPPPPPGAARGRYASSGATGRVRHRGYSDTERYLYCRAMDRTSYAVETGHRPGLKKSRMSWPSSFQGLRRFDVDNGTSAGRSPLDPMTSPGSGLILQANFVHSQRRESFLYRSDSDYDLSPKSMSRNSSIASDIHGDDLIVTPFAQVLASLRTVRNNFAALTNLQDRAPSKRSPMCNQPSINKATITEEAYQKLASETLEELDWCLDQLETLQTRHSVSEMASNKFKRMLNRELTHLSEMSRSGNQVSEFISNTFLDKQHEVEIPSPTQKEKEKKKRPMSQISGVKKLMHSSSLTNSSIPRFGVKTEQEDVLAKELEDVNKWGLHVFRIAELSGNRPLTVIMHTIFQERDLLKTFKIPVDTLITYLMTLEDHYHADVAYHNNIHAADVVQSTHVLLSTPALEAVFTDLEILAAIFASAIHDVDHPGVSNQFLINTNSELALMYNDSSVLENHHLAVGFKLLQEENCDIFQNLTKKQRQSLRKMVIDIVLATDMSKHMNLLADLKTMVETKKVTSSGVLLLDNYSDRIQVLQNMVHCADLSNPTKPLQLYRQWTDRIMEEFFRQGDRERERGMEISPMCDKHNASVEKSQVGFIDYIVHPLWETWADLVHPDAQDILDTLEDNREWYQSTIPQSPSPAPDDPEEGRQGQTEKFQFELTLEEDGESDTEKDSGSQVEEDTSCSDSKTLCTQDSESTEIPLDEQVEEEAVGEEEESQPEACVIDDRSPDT
T4 sequence (Q14432 whole entry): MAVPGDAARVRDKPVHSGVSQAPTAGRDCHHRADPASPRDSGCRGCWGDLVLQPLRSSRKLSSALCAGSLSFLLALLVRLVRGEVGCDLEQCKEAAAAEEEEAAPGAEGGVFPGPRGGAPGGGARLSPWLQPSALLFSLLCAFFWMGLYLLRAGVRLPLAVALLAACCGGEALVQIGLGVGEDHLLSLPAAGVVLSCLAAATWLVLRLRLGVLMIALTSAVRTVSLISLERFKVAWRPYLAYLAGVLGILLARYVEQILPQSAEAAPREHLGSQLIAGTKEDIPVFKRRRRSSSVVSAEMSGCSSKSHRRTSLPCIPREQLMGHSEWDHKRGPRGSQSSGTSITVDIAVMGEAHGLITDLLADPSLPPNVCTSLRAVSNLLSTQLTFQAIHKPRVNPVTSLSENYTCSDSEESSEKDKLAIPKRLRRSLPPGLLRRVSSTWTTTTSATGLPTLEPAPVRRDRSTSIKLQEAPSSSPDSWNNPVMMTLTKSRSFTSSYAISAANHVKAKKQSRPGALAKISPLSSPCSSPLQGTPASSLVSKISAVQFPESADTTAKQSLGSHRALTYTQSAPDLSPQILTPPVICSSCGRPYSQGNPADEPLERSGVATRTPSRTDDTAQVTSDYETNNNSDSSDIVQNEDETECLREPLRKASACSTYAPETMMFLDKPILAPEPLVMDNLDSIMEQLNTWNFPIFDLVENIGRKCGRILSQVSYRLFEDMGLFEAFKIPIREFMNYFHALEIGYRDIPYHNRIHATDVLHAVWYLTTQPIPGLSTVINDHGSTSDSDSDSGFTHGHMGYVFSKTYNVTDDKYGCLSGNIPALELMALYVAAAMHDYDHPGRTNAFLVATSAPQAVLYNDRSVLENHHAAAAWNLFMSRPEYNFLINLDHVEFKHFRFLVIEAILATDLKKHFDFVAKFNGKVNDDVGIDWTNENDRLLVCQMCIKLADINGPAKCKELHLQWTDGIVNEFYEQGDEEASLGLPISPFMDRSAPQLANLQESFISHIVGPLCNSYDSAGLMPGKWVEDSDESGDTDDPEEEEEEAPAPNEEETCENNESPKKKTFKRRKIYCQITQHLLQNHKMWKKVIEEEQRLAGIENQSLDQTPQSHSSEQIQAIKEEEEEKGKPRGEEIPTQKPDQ

Take `CC1CCCCC1n1nnc2c(N)ncnc21` (single isomer, unassigned) [Example 191, 3-(cis-2-methylcyclohexyl)-3H-[1,2,3]triazolo[4,5-d]pyrimidin-7-amine]: the inhibition constant Ki at hPDE1A was 39 µM; at hPDE10A [1], 2.4 µM; on hPDE3A, greater than 52 µM. Besides, the IC50 came out at 3.49 µM on hPDE10A [2] and 9.2 µM on hPDE4D.

With `Nc1ncnc2c1nnn2C1CCCCC1` [Example 3, 3-cyclohexyl-3H-[1,2,3]triazolo[4,5-d]pyrimidin-7-amine], the Ki on hPDE1A was greater than 52 µM; on hPDE10A [1] it was 12 µM; at hPDE3A it was greater than 52 µM. Also, the inhibition at 10 µM at hPDE10A [2] was found to be 27%. The IC50 on hPDE4D worked out at 7.82 µM.

Regarding `Cc1nc(N)c2nnn(C3CCCCC3)c2n1` [Example 4], the inhibition constant Ki at hPDE1A was greater than 5.2 µM; on hPDE10A [1] it was 1.1 µM; at hPDE3A it was greater than 5.2 µM. The IC50 at hPDE10A [2] was 1.75 µM; on hPDE4D it was 0.54 µM.

With `Nc1nccn2c(C3CCCCC3)nnc12` [Example 141, 3-cyclohexyl[1,2,4]triazolo[4,3-a]pyrazin-8-amine], the Ki at hPDE1A was greater than 5.2 µM; on hPDE10A [1], greater than 5.1 µM; on hPDE3A, greater than 5.2 µM. For the same molecule, the inhibition at 10 µM on hPDE10A [2] amounted to 30%. For the same molecule, the IC50 on hPDE4D is 6.22 µM.

Take `C[C@@H]1CCC[C@H](c2nnc3c(N)nccn23)C1` [Example 204, 3-[(1S,3R)-3-methylcyclohexyl][1,2,4]triazolo[4,3-a]pyrazin-8-amine]: the Ki at hPDE1A amounted to 8.9 µM; on hPDE10A [1], 2.6 µM; at hPDE3A, 43 µM. In addition, the results for the half-inhibitory concentration (IC50) on hPDE10A [2] and at hPDE4D were 2.93 µM and 1.51 µM, respectively.
